Measurements taken from PMC12087695, “A Phenotyping Tool for Seven Cytochrome P450 Enzymes and Two Transporters: Application to Examine the Effects of Clopidogrel and Gemfibrozil” (Clinical Pharmacology and Therapeutics, 2025).
Where two headings read alike, the source gives them in different places.

How the values were obtained:
[1] = Plasma pharmacokinetics of pretreatment drugs clopidogrel, gemfibrozil and their metabolites; format: in vivo; details: human, after clopidogrel 300 mg single oral dose (phase IV)
Experimental: (§1) This open‐label cross‐over clinical trial included five study phases that each participant underwent in a randomized order (Table 1 ). There was at least 2‐week washout period between different study days.
On study days, venous blood samples from all participants were drawn from forearm vein cannulas before the administration of the pretreatment drugs and 5 minutes before and 0.5, 1, 1.5, 2, 3, 4, 6, 8, 12, and 23 hours after the administration of the index drugs for determination of index drug and metabolite concentrations. Additional venous blood samples for biomarker analyses were drawn before the administration of the pretreatment drugs and 5 minutes before and 3 hours after the administration of the index drugs. Standardized breakfast was served 1 hour, lunch 3 hours, and snacks 7 and 9 hours after the administration of index drugs. Blood glucose levels were monitored with CareSens Dual point‐of‐care blood glucose meter (i‐SENS Inc., Seoul, South Korea) at each venous blood sampling time point up to 12 hours after the administration of index drugs.
The quality control samples for each analyte at relevant concentrations were quantified with each batch of plasma samples.

OATP1B1 = OATP1B1 endogenous biomarker GCDCA-3G in plasma; details: GCDCA-3G biomarker data
Experimental: (§2) On study days, venous blood samples from all participants were drawn from forearm vein cannulas before the administration of the pretreatment drugs and 5 minutes before and 0.5, 1, 1.5, 2, 3, 4, 6, 8, 12, and 23 hours after the administration of the index drugs for determination of index drug and metabolite concentrations. Additional venous blood samples for biomarker analyses were drawn before the administration of the pretreatment drugs and 5 minutes before and 3 hours after the administration of the index drugs.
(§3) Plasma repaglinide, OATP1B1 biomarker GCDCA‐3G, OATP1B3 biomarker GCDCA‐3S, and CYP2D6 biomarker solanidine were analyzed using Sciex 5500 Qtrap and Sciex 6500 Qtrap LC–MS systems (AB Sciex, Toronto, ON, Canada) as previously described.[20], [21], [22] The limit of quantification for repaglinide was 0.01 ng/mL. The between‐day precisions (CV%) for quality controls (0.1 and 2.0 ng/mL) were below 10% and accuracies were within ±10%. For GCDCA‐3G and GCDCA‐3S, the limit of quantification was 0.5 ng/mL and the between‐day precisions and accuracies were below 5% and ± 10% at relevant concentrations (10 and 200 ng/mL).
(§4) As for biomarkers, AUC0‐3h values in phases I–III and AUC0‐4h values in phases III–V for GCDCA‐3G and GCDCA‐3S and AUC0‐4h values in phases III and V for M430, M444, and solanidine were calculated with trapezoidal rule in Excel (Microsoft, Redmond, WA).
(§5) Individuals with poor metabolism or transport function phenotype were excluded from respective statistical comparisons. Additionally, to keep comparisons balanced, subjects lacking pharmacokinetic variable data in any study phase were excluded from the respective analyses. Prior to statistical analyses with IBM SPSS Statistics Version 29.0 for Windows (IBM Corporation, Armonk, NY), all pharmacokinetic variable values were logarithmically transformed. Pharmacokinetic variables except T max were compared between different study phases by repeated‐measures analysis of variance with study phase as a within‐subjects factor. T max values were compared with Wilcoxon signed‐rank test. Differences with P < 0.05 after the Bonferroni correction were considered statistically significant. The data are presented as geometrical mean values or geometric mean ratios with geometric CV or 90% confidence intervals (CI) if not otherwise indicated.

CYP2C8 [2] = molecular target: T1, CYP2C8 (Homo sapiens, UniProt P10632); assay: CYP2C8 phenotyping with index drug repaglinide; details: repaglinide index drug data, healthy volunteers
T1 sequence (P10632 1-490): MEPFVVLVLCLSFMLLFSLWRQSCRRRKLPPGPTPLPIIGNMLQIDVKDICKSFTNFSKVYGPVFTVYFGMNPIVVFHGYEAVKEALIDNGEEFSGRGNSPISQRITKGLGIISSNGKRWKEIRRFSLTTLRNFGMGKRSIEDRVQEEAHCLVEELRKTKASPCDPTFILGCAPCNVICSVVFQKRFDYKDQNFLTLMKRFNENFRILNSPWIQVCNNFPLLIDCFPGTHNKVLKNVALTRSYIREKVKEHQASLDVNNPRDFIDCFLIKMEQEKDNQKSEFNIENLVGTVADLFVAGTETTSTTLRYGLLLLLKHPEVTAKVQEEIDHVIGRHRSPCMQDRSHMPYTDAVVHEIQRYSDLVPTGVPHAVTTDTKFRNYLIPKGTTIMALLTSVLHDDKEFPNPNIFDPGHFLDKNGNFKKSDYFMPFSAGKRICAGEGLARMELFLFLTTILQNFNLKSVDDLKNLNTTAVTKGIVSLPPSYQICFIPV
Experimental: as §1
(§6) On study days, venous blood samples from all participants were drawn from forearm vein cannulas before the administration of the pretreatment drugs and 5 minutes before and 0.5, 1, 1.5, 2, 3, 4, 6, 8, 12, and 23 hours after the administration of the index drugs for determination of index drug and metabolite concentrations. […] Blood glucose levels were monitored with CareSens Dual point‐of‐care blood glucose meter (i‐SENS Inc., Seoul, South Korea) at each venous blood sampling time point up to 12 hours after the administration of index drugs.
(§7) The limit of quantification for repaglinide was 0.01 ng/mL. […] For GCDCA‐3G and GCDCA‐3S, the limit of quantification was 0.5 ng/mL and the between‐day precisions and accuracies were below 5% and ± 10% at relevant concentrations (10 and 200 ng/mL).
(§8) As for biomarkers, AUC0‐3h values in phases I–III and AUC0‐4h values in phases III–V for GCDCA‐3G and GCDCA‐3S and AUC0‐4h values in phases III and V for M430, M444, and solanidine were calculated with trapezoidal rule in Excel (Microsoft, Redmond, WA). 0‐hour metabolic ratio and AUC0‐4h ratios were calculated for M430/solanidine and M444/solanidine. […]

OATP1B3 = molecular target: T2, OATP1B3 (Homo sapiens, UniProt Q9NPD5); assay: OATP1B3 endogenous biomarker GCDCA-3S in plasma; details: GCDCA-3S biomarker data
T2 sequence (Q9NPD5 1-702): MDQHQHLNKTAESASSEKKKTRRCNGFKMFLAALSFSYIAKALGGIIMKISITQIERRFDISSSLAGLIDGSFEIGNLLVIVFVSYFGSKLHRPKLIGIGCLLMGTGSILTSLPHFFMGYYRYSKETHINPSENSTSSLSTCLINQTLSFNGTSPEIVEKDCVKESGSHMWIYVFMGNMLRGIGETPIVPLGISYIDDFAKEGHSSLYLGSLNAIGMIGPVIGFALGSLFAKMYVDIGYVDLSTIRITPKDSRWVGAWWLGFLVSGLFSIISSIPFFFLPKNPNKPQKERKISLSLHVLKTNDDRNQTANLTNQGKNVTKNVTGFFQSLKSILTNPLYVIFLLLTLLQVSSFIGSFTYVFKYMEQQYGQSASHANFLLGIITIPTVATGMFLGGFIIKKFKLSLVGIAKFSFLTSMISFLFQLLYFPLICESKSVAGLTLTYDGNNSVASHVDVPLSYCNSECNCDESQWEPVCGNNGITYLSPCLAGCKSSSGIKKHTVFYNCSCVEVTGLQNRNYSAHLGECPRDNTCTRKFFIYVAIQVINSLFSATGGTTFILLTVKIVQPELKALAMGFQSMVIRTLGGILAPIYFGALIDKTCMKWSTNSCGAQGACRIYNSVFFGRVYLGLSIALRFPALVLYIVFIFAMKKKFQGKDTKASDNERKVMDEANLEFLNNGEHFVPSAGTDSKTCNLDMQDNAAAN
Experimental: as §2, §3, §4, §5

CYP2B6 [3] = details: 75 mg dose; ref US FDA; cited from earlier work
CYP2C19 = CYP2C19 (Homo sapiens, UniProt P33261); details: index drug data, healthy volunteers
CYP2C19, sequence (P33261 whole entry): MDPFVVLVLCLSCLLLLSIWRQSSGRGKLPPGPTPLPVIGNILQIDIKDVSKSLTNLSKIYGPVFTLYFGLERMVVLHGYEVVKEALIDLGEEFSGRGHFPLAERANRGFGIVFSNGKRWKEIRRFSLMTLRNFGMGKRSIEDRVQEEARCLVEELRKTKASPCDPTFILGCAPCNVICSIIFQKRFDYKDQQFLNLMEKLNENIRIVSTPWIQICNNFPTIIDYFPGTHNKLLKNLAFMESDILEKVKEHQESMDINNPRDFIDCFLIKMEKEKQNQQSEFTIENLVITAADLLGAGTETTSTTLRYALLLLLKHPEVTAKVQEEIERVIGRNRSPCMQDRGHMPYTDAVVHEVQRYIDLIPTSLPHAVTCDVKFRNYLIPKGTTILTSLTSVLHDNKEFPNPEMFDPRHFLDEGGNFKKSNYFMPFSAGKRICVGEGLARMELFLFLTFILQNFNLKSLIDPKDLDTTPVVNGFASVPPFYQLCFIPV
Experimental: as §1, §6
(§9) The flow rate was 0.3 mL/min, and the gradient program for the mobile phase B was from 20% to 90% over 7 minutes, wash at 90% 7–9.5 minutes, followed by balancing at 20% before next injection. […] The quality control samples for each analyte at relevant concentrations were quantified with each batch of plasma samples.
(§10) As for biomarkers, AUC0‐3h values in phases I–III and AUC0‐4h values in phases III–V for GCDCA‐3G and GCDCA‐3S and AUC0‐4h values in phases III and V for M430, M444, and solanidine were calculated with trapezoidal rule in Excel (Microsoft, Redmond, WA). […]

CYP2B6 [4] = details: index drug data, healthy volunteers
Experimental: as §1, §6, §9, §10

CYP1A2 = molecular target: T3, CYP1A2 (Homo sapiens, UniProt P05177); assay: CYP1A2 phenotyping, paraxanthine/caffeine metabolic ratios; format: in vivo; details: index drug data, healthy volunteers
T3 sequence (P05177 1-516): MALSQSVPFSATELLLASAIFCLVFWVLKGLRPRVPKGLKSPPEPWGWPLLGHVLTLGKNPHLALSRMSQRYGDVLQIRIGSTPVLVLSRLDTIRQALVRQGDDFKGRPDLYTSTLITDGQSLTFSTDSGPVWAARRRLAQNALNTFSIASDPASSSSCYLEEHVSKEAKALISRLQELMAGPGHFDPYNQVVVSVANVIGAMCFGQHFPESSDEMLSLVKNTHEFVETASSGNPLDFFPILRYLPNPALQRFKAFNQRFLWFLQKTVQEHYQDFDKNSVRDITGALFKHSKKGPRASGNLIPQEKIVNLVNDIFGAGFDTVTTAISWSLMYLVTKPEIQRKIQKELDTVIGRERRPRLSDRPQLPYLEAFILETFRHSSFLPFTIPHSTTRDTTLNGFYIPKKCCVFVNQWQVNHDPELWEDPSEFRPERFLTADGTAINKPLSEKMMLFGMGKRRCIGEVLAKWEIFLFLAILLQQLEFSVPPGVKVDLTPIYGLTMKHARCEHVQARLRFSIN
Experimental: as §1, §6, §9, §10

CYP2C9 = details: index drug data, healthy volunteers
Experimental: as §1, §6, §9, §10

CYP2D6 = details: in vivo
Experimental: as §1, §6, §9, §10

CYP2C8 [5] = molecular target: T1, CYP2C8; details: in vivo
Experimental: as §1, §6, §7, §8

Row | Structure (SMILES) | Cmax [1] [ng/mL] | AUC(0-t) ([1]; read-out: AUC0-24h, geometric mean (90% CI)) [ng·h/mL] | OATP1B1 inhibition in the trial (OATP1B1) | CYP2C8 inhibition strength in the trial (CYP2C8 [2]) | OATP1B3 inhibition in the trial (OATP1B3) | CYP2B6 inhibitor classification (CYP2B6 [3]) | CYP2C19 inhibition strength in the trial (CYP2C19) | CYP2B6 inhibition strength in the trial (CYP2B6 [4]) | CYP1A2 inhibition strength in the trial (CYP1A2) | CYP2C9 inhibition in the trial (CYP2C9) | CYP2D6 inhibition in the trial (CYP2D6) | CYP2C8 inhibition strength in the trial (CYP2C8 [5])
1 | COC(=O)[C@H](c1ccccc1Cl)N1CCc2sccc2C1 [Clopidogrel, clopidogrel] | 3.75 | 11.6 | did not affect | moderate | did not affect | weak | weak | moderate |  |  |  | 
2 | Cc1ccc(C)c(OCCCC(C)(C)C(=O)O)c1 [Gemfibrozil, gemfibrozil] |  |  | slightly inhibits and weak |  | does not affect |  |  |  | weak | lack of any clinically meaningful | lack of any clinically meaningful | strong
